Measured values published in patent publication US9296734B2 (AMGEN INC., priority 2013, dated 2016).
pIC50: −log10 of the molar value. Read-outs that look alike come from different tables or passages of the source.

Biological target: Cathepsin D (Cat D) (Homo sapiens (Human), UniProt P07339)
Assay: In vitro enzymatic Cathepsin D (Cat D) FRET assay
Assay type: biochemical
Conditions: read-out: CatD IC50
Procedure: In Vitro Enzymatic Cathepsin D (Cat D) FRET (Fluorescence Resonance Energy Transfer) Assay
Recombinant Cat D was expressed in CHO cells. The assay buffer for CathepsinD is 0.05 M citrate pH 3.5, 10% DMSO final, 5 mM CHAPS. […] The assays are effectively started by the addition of different FRET substrates (20 nM for Cat D) and the combination is incubated for one hour. The FRET assay is terminated with by addition of Tris buffer, which raises the pH to neutrality, and the fluorescence is determined. The FRET substrate is a peptide with commercially available fluorophore and quencher, on opposite sides of the BACE cleavage site. […] Proteolytic cleavage of the FRET substrate releases quenching of fluorescence (Cat D excitation 500 nm and emission 580 nm).
In addition, the cathepsin D and cathepsin E assays are described in PCT publication WO2011069934.

[1] = average IC50, cathepsin D enzyme assay

Cathepsin D (Cat D), sequence (P07339 65-412, species assumed): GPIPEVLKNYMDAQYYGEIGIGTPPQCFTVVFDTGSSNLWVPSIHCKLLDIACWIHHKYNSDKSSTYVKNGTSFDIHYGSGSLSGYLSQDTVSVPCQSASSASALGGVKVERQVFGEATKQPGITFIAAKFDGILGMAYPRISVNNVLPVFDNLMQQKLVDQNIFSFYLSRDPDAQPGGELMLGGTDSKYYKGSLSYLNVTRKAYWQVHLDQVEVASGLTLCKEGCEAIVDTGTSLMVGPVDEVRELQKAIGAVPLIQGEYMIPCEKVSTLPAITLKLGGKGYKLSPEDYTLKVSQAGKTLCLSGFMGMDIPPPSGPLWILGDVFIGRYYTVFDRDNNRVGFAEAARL

| Structure (SMILES) | pIC50 (average) | pIC50 (average IC50) | further results |
| --- | --- | --- | --- |
| COc1cnc(C(=O)Nc2cnc(F)c([C@]3(C)C[C@@H](C(F)(F)F)OC(N)=N3)c2)cn1 [Example 70, N-(5-((4S,6S)-2-amino-4-methyl-6-(trifluoromethyl)-5,6-dihydro-4H-1,3-oxazin-4-yl)-6-fluoropyridin-3-yl)-5-methoxypyrazine-2-carboxamide] | – | – | pIC50 [1]: 3.40 |
| CC#CCOc1cnc(C(=O)Nc2cc(F)c(F)c([C@]3(C)C[C@@H](C(F)(F)F)OC(N)=N3)c2)c(C)c1 [Example 188, N-(3-((4S,6S)-2-amino-4-methyl-6-(trifluoromethyl)-5,6-dihydro-4H-1,3-oxazin-4-yl)-4,5-difluorophenyl)-5-(but-2-yn-1-yloxy)-3-methylpicolinamide] | 3.54 | – | – |
| C[C@@]1(c2cc(Nc3ncc(F)c4cc(C#N)cnc34)cnc2F)C[C@@H](C(F)(F)F)OC(N)=N1 [Example 78, 8-((5-((4S,6S)-2-amino-4-methyl-6-(trifluoromethyl)-5,6-dihydro-4H-1,3-oxazin-4-yl)-6-fluoropyridin-3-yl)amino)-5-fluoro-1,7-naphthyridine-3-carbonitrile] | – | < 3.40 | – |
| N#Cc1cnc2c(Nc3ccc(F)c([C@]4(CF)C[C@@H](C(F)(F)F)OC(N)=N4)c3)ncc(F)c2c1 [Example 10, 8-((3-((4S,6S)-2-amino-4-(fluoromethyl)-6-(trifluoromethyl)-5,6-dihydro-4H-1,3-oxazin-4-yl)-4-fluorophenyl)amino)-5-fluoro-1,7-naphthyridine-3-carbonitrile] | – | < 4.36 | – |
| NC1=N[C@](CF)(c2cc(NC(=O)c3ncc(Cl)cc3Cl)ccc2F)C[C@@H](C(F)(F)F)O1 [Example 58, N-(3-((4S,6S)-2-amino-4-(fluoromethyl)-6-(trifluoromethyl)-5,6-dihydro-4H-1,3-oxazin-4-yl)-4-fluorophenyl)-3,5-dichloropicolinamide] | – | 2.62 | – |
| NC1=N[C@](CF)(c2cc(Nc3ncnc4sc(C(F)F)nc34)ccc2F)C[C@@H](C(F)(F)F)O1 [Example 21, (4S,6S)-4-(5-((2-(difluoromethyl)thiazolo[5,4-d]pyrimidin-7-yl)amino)-2-fluorophenyl)-4-(fluoromethyl)-6-(trifluoromethyl)-5,6-dihydro-4H-1,3-oxazin-2-amine] | – | – | pIC50 [1]: < 3.40 |
| Cc1cc(OC(F)F)cnc1C(=O)Nc1cc(F)c(F)c([C@]2(C)C[C@@H](C(F)(F)F)OC(N)=N2)c1 [Example 174, N-(3-((4S,6S)-2-amino-4-methyl-6-(trifluoromethyl)-5,6-dihydro-4H-1,3-oxazin-4-yl)-4,5-difluorophenyl)-5-(difluoromethoxy)-3-methylpicolinamide] | < 3.40 | – | – |
| NC1=N[C@](CF)(c2cc(NC(=O)c3ccc(C#CC4CC4)cn3)cc(F)c2F)C[C@@H](C(F)(F)F)O1 [Example 158, N-(3-((4S,6S)-2-amino-4-(fluoromethyl)-6-(trifluoromethyl)-5,6-dihydro-4H-1,3-oxazin-4-yl)-4,5-difluorophenyl)-5-(cyclopropylethynyl)picolinamide] | – | – | pIC50 [1]: < 3.40 |
| COc1cnc2c(Nc3cc(F)c(F)c([C@]4(C)C[C@@H](C(F)(F)F)OC(N)=N4)c3)nccc2n1 [Example 178, (4S,6S)-4-(2,3-difluoro-5-((2-methoxypyrido[3,4-b]pyrazin-5-yl)amino)phenyl)-4-methyl-6-(trifluoromethyl)-5,6-dihydro-4H-1,3-oxazin-2-amine] | – | – | pIC50 [1]: 3.28 |
| C[C@@]1(c2nc(NC(=O)c3ncc(Br)cc3Cl)ccc2F)C[C@@H](C(F)(F)F)OC(N)=N1 [Example 86, N-(6-((4S,6S)-2-amino-4-methyl-6-(trifluoromethyl)-5,6-dihydro-4H-1,3-oxazin-4-yl)-5-fluoropyridin-2-yl)-5-bromo-3-chloropicolinamide] | – | 3.20 | – |
| NC1=N[C@](CF)(c2cc(Oc3ncccc3Cl)ccc2F)C[C@@H](C(F)(F)F)O1 [Example 97, (4S,6S)-4-(5-((3-chloropyridin-2-yl)oxy)-2-fluorophenyl)-4-(fluoromethyl)-6-(trifluoromethyl)-5,6-dihydro-4H-1,3-oxazin-2-amine] | – | 3.00 | – |
| C[C@@]1(c2cc(NC(=O)N3CCC(C(F)F)CC3)ccc2F)C[C@@H](C(F)(F)F)OC(N)=N1 [Example 122, N-(3-((4S,6S)-2-amino-4-methyl-6-(trifluoromethyl)-5,6-dihydro-4H-1,3-oxazin-4-yl)-4-fluorophenyl)-4-(difluoromethyl)piperidine-1-carboxamide] | – | – | pIC50 [1]: < 4.83 |
| Cc1cc(NC(=O)c2ccc(C(F)F)cn2)cc([C@]2(CF)C[C@@H](C(F)(F)F)OC(N)=N2)c1F [Example 221, N-(3-((4S,6S)-2-amino-4-(fluoromethyl)-6-(trifluoromethyl)-5,6-dihydro-4H-1,3-oxazin-4-yl)-4-fluoro-5-methylphenyl)-5-(difluoromethyl)picolinamide] | 3.00 | – | – |
| Cc1cc(C(F)F)cnc1C(=O)Nc1cc(C)c(F)c([C@]2(CF)C[C@@H](C(F)(F)F)OC(N)=N2)c1 [Example 216, N-(3-((4S,6S)-2-amino-4-(fluoromethyl)-6-(trifluoromethyl)-5,6-dihydro-4H-1,3-oxazin-4-yl)-4-fluoro-5-methylphenyl)-5-(difluoromethyl)-3-methylpicolinamide] | < 3.40 | – | – |
| C[C@@]1(c2cc(NC(=O)N3CC=C(C#CC4CC4)CC3)ccc2F)C[C@@H](C(F)(F)F)OC(N)=N1 [Example 124, N-(3-((4S,6S)-2-amino-4-methyl-6-(trifluoromethyl)-5,6-dihydro-4H-1,3-oxazin-4-yl)-4-fluorophenyl)-4-(cyclopropylethynyl)-5,6-dihydropyridine-1(2H)-carboxamide] | – | – | pIC50 [1]: 3.09 |
| COc1cnc(C(=O)Nc2ccc(F)c([C@]3(CF)C[C@H](C(F)(F)F)OC(N)=N3)c2)cn1 (racemic) [Example 25, N-(3-((4S,6R)-2-amino-4-(fluoromethyl)-6-(trifluoromethyl)-5,6-dihydro-4H-1,3-oxazin-4-yl)-4-fluorophenyl)-5-methoxypyrazine-2-carboxamide] | – | < 3.40 | – |
| COc1cnc2c(Nc3ccc(F)c([C@]4(CF)C[C@@H](C(F)(F)F)OC(N)=N4)c3)ncnc2c1 [Example 13, (4S,6S)-4-(2-fluoro-5-((7-methoxypyrido[3,2-d]pyrimidin-4-yl)amino)phenyl)-4-(fluoromethyl)-6-(trifluoromethyl)-5,6-dihydro-4H-1,3-oxazin-2-amine] | – | < 3.40 | – |
| C[C@@]1(c2cc(NC(=O)c3ccc(C(F)F)cn3)cc(F)c2F)C[C@@H](C(F)(F)F)OC(N)=N1 [Example 200, N-(3-((4S,6S)-2-amino-4-methyl-6-(trifluoromethyl)-5,6-dihydro-4H-1,3-oxazin-4-yl)-4,5-difluorophenyl)-5-(difluoromethyl)picolinamide] | 3.00 | – | – |
| NC1=N[C@](CF)(c2cc(NC(=O)c3nn(C(F)F)cc3Cl)ccc2F)C[C@@H](C(F)(F)F)O1 [Example 36, N-(3-((4S,6S)-2-amino-4-(fluoromethyl)-6-(trifluoromethyl)-5,6-dihydro-4H-1,3-oxazin-4-yl)-4-fluorophenyl)-4-chloro-1-(difluoromethyl)-1H-pyrazole-3-carboxamide] | – | – | pIC50 [1]: 2.62 |
| C#CCOc1cnc(C(=O)Nc2ccc(F)c([C@]3(C)C[C@@H](C(F)(F)F)OC(N)=N3)c2)cn1 [Example 45, N-(3-((4S,6S)-2-amino-4-methyl-6-(trifluoromethyl)-5,6-dihydro-4H-1,3-oxazin-4-yl)-4-fluorophenyl)-5-(prop-2-yn-1-yloxy)pyrazine-2-carboxamide] | 2.59 | – | – |
| NC1=N[C@](CF)(c2cc(NC(=S)c3ccc(Cl)cn3)ccc2F)C[C@@H](C(F)(F)F)O1 [Example 91, N-(3-((4S,6S)-2-amino-4-(fluoromethyl)-6-(trifluoromethyl)-5,6-dihydro-4H-1,3-oxazin-4-yl)-4-fluorophenyl)-5-chloropyridine-2-carbothioamide] | 3.09 | – | – |
| C[C@@]1(c2cc(NC(=O)c3ncc(C(F)F)cc3Cl)cc(F)c2F)C[C@@H](C(F)(F)F)OC(N)=N1 [Example 198, N-(3-((4S,6S)-2-amino-4-methyl-6-(trifluoromethyl)-5,6-dihydro-4H-1,3-oxazin-4-yl)-4,5-difluorophenyl)-3-chloro-5-(difluoromethyl)picolinamide] | < 3.40 | – | – |
| COc1cnc(C(=O)Nc2cc(Cl)c(F)c([C@]3(C)C[C@@H](C(F)(F)F)OC(N)=N3)c2)c(C)n1 [Example 215, N-(3-((4S,6S)-2-amino-4-methyl-6-(trifluoromethyl)-5,6-dihydro-4H-1,3-oxazin-4-yl)-5-chloro-4-fluorophenyl)-5-methoxy-3-methylpyrazine-2-carboxamide] | < 3.40 | – | – |
| Cc1cc(Cl)cnc1C(=O)Nc1ccc(F)c([C@]2(C)C[C@@H](C(F)(F)F)OC(N)=N2)c1 (racemic) [Example 31, N-(3-((4SR,6SR)-2-amino-4-methyl-6-(trifluoromethyl)-5,6-dihydro-4H-1,3-oxazin-4-yl)-4-fluorophenyl)-5-chloro-3-methyl-2-pyridinecarboxamide] | – | 3.69 | – |
| COc1cnc(C(=O)Nc2cnc(F)c([C@]3(C)C[C@@H](C(F)(F)F)OC(N)=N3)c2)c(Cl)c1 [Example 69, N-(5-((4S,6S)-2-amino-4-methyl-6-(trifluoromethyl)-5,6-dihydro-4H-1,3-oxazin-4-yl)-6-fluoropyridin-3-yl)-3-chloro-5-methoxypicolinamide] | – | < 3.40 | – |
| CNC(=O)c1ccnc(Oc2ccc(F)c([C@]3(CF)C[C@@H](C(F)(F)F)OC(N)=N3)c2)c1 [Example 96, 2-(3-((4S,6S)-2-amino-4-(fluoromethyl)-6-(trifluoromethyl)-5,6-dihydro-4H-1,3-oxazin-4-yl)-4-fluorophenoxy)-N-methylisonicotinamide] | – | < 3.40 | – |
